In patent US20020173538A1, “Method for sensitizing cancer cells to cancer therapies with a mevalonate-reducing compound” (priority 2000, published 2002):
Read-outs that look alike come from different tables or passages of the source.

Assays:
Type in all cases: cell-based, human
Hep 3B cells = experiment: Sub-G1 population and DNA fragmentation (apoptosis), Hep 3B; conditions: compared with Hep G2 cells treated in the same condition (FIG. 12)
[1] = test system: cholesterol biosynthesis in Hep 3B cells; experiment: Cholesterol biosynthesis, incorporation of [2, ^3H]acetate into [^3H]cholesterol, Hep 3B; conditions: for inhibition at 10 µM / inhibition at 1 µM / inhibition at 5 µM / inhibition at 50 µM: Homo sapiens, Hep3B, read-out: percentage of inhibition of cholesterol biosynthesis
[2] = test system: cholesterol biosynthesis in Hep G2 cells; experiment: Cholesterol biosynthesis, incorporation of [2, ^3H]acetate into [^3H]cholesterol, Hep G2; conditions: for inhibition at 10 µM / inhibition at 1 µM / inhibition at 5 µM / inhibition at 50 µM: Homo sapiens, read-out: percentage of inhibition of cholesterol biosynthesis

With `CC[C@H](C)C(=O)O[C@H]1C[C@@H](C)C=C2C=C[C@H](C)[C@H](CC[C@@H]3C[C@@H](O)CC(=O)O3)[C@H]21` [Lovastatin, lovastatin] as the molecule, how does the “Sub-G1 population and DNA fragmentation (markers of cell apoptosis)” value (Hep 3B cells) read?
Its value is “observed in a higher percentage and lower dose of lovastatin treatment than those in Hep G2 cells”.

What about the inhibition at 10 µM ([1]; 2 h) of the same molecule?
The inhibition at 10 µM was 94.1%.

And the inhibition at 10 µM ([1]; 6 h)?
The inhibition at 10 µM was 92.4%.

And the inhibition at 10 µM ([1]; 12 h)?
The inhibition at 10 µM was 89.5%.

What about the inhibition at 1 µM ([1]; 24 h) of the same molecule?
Its inhibition at 1 µM is 50%.

And the inhibition at 5 µM ([1]; 24 h)?
Its inhibition at 5 µM is 85.4%.

And the inhibition at 10 µM ([1]; 24 h)?
The inhibition at 10 µM was 91.4%.

And the inhibition at 50 µM ([1]; 24 h)?
The inhibition at 50 µM was 95.1%.

And the inhibition at 1 µM ([1]; 48 h)?
Its inhibition at 1 µM is 68.2%.

What about the inhibition at 5 µM ([1]; 48 h) of the same molecule?
Its inhibition at 5 µM is 86.2%.

And the inhibition at 10 µM ([1]; 48 h)?
Its inhibition at 10 µM is 94%.

What about the inhibition at 50 µM ([1]; 48 h) of the same molecule?
Its inhibition at 50 µM is 95.5%.

What about the “suppression of cholesterol synthesis” value ([1]; after prolonged treatment with lovastatin) of the same molecule?
Its value is greater than 90%.

And the “[^3H]cholesterol” value ([1]; lovastatin 1 μM, 24 hr)?
The value was 29.84 10^2 dpm/10^5 cells/hr.

What about the “[^3H]cholesterol” value ([1]; lovastatin 1 μM, 48 hr) of the same molecule?
Its value is 18.95 10^2 dpm/10^5 cells/hr.

And the “[^3H]cholesterol” value ([1]; lovastatin 5 μM, 24 hr)?
Its value is 8.69 10^2 dpm/10^5 cells/hr.

What about the “[^3H]cholesterol” value ([1]; lovastatin 5 μM, 48 hr) of the same molecule?
The value was 8.25 10^2 dpm/10^5 cells/hr.

And the “[^3H]cholesterol” value ([1]; lovastatin 10 μM, 2 hr)?
Its value is 3.54 10^2 dpm/10^5 cells/hr.

And the “[^3H]cholesterol” value ([1]; lovastatin 10 μM, 6 hr)?
The value was 4.52 10^2 dpm/10^5 cells/hr.

And the “[^3H]cholesterol” value ([1]; lovastatin 10 μM, 12 hr)?
Its value is 6.25 10^2 dpm/10^5 cells/hr.

What about the “[^3H]cholesterol” value ([1]; lovastatin 10 μM, 24 hr) of the same molecule?
Its value is 5.13 10^2 dpm/10^5 cells/hr.

What about the “[^3H]cholesterol” value ([1]; lovastatin 10 μM, 48 hr) of the same molecule?
Its value is 3.59 10^2 dpm/10^5 cells/hr.

And the “[^3H]cholesterol” value ([1]; lovastatin 50 μM, 24 hr)?
The value was 2.92 10^2 dpm/10^5 cells/hr.

And the “[^3H]cholesterol” value ([1]; lovastatin 50 μM, 48 hr)?
The value was 2.71 10^2 dpm/10^5 cells/hr.

What about the inhibition at 10 µM ([2]; HepG2, 2 h) of the same molecule?
The inhibition at 10 µM was 91.8%.

And the inhibition at 10 µM ([2]; HepG2, 6 h)?
The inhibition at 10 µM was 94%.

What about the inhibition at 10 µM ([2]; HepG2, 12 h) of the same molecule?
Its inhibition at 10 µM is 93.3%.

And the inhibition at 1 µM ([2]; HepG2, 24 h)?
Its inhibition at 1 µM is 50.7%.

And the inhibition at 5 µM ([2]; HepG2, 24 h)?
Its inhibition at 5 µM is 73.2%.

And the inhibition at 10 µM ([2]; HepG2, 24 h)?
Its inhibition at 10 µM is 87.2%.

What about the inhibition at 50 µM ([2]; HepG2, 24 h) of the same molecule?
The inhibition at 50 µM was 95.8%.

And the inhibition at 1 µM ([2]; HepG2, 48 h)?
The inhibition at 1 µM was -15.3%.

What about the inhibition at 5 µM ([2]; HepG2, 48 h) of the same molecule?
The inhibition at 5 µM was 48.5%.

And the inhibition at 10 µM ([2]; HepG2, 48 h)?
The inhibition at 10 µM was 69.4%.

What about the inhibition at 50 µM ([2]; HepG2, 48 h) of the same molecule?
Its inhibition at 50 µM is 85.1%.

And the “[^3H]cholesterol” value ([2]; lovastatin 1 μM, 24 hr)?
Its value is 30.14 10^2 dpm/10^5 cells/hr.

What about the “[^3H]cholesterol” value ([2]; lovastatin 1 μM, 48 hr) of the same molecule?
The value was 70.43 10^2 dpm/10^5 cells/hr.

And the “[^3H]cholesterol” value ([2]; lovastatin 5 μM, 24 hr)?
Its value is 16.39 10^2 dpm/10^5 cells/hr.

And the “[^3H]cholesterol” value ([2]; lovastatin 5 μM, 48 hr)?
The value was 31.46 10^2 dpm/10^5 cells/hr.

And the “[^3H]cholesterol” value ([2]; lovastatin 10 μM, 2 hr)?
The value was 5.00 10^2 dpm/10^5 cells/hr.

What about the “[^3H]cholesterol” value ([2]; lovastatin 10 μM, 6 hr) of the same molecule?
Its value is 3.67 10^2 dpm/10^5 cells/hr.

And the “[^3H]cholesterol” value ([2]; lovastatin 10 μM, 12 hr)?
The value was 4.07 10^2 dpm/10^5 cells/hr.

And the “[^3H]cholesterol” value ([2]; lovastatin 10 μM, 24 hr)?
Its value is 7.83 10^2 dpm/10^5 cells/hr.

What about the “[^3H]cholesterol” value ([2]; lovastatin 10 μM, 48 hr) of the same molecule?
The value was 18.71 10^2 dpm/10^5 cells/hr.

What about the “[^3H]cholesterol” value ([2]; lovastatin 50 μM, 24 hr) of the same molecule?
Its value is 2.54 10^2 dpm/10^5 cells/hr.

And the “[^3H]cholesterol” value ([2]; lovastatin 50 μM, 48 hr)?
The value was 9.13 10^2 dpm/10^5 cells/hr.
